{"source": "patent US20100190722A1", "about": "“SUBSTANCE P AND THYROTROPIN RELEASING HORMONE FOR THERAPEUTIC APPLICATIONS” (priority 2007, published 2010)", "key": {"[1]": {"test_system": "TNF-a spleen cells", "experiment": "Th1/Th2 cytokine profiling assay, TNF-a", "format": "cell-based, Balb/c mice", "details": "10 micrograms per ml; Ovalbumin restimulation; 72 hours", "description": "(§1) The Balb/c mice (originated in 1923, it is a popular strain and is used in many different research disciplines. Also classified as an inbred from the production of 20 or more successive brother-sister matings, the Balb/c mouse is albino and small in size) were immunized on Days 1, 15, and 29 with Ovalbumin (Ovalbumin is the main protein found in egg white, commonly used to stimulate an immunological reaction in test animals) in PBS (5 micrograms/injection). On day 50, spleens of the mice were harvested (3 weeks after last boost with Ovalbumin). […] Thereafter, additional Ovalbumin was added to the cells at 10 micrograms/ml for in vitro restimulation of the cells. 72 hours later, cell supernatants were harvested and assayed using the Becton Dickinson Mouse Th1/Th2 Cytokine CBA Kit."}, "[2]": {"test_system": "hepatitis B virus (HBV) ayw strain", "experiment": "HBV experimental assay system (secreted HBV DNA, TaqMan PCR)", "format": "cell-based", "details": "10 micrograms per ml; HepG2-2.2.15 cells; six days"}, "[3]": {"test_system": "A549 cells", "experiment": "Apoptosis prevention assay (C2 ceramide, Annexin-5)", "format": "cell-based, human", "details": "10 micrograms per ml, 30 min pretreatment", "protocol": "Human A549 cells (carcinomic human alveolar basal epithelial cells) were utilized in the experiments employing the Annexin-5 apoptosis assay. […] A549 cells were pretreated for 30 min with test peptides—10 micrograms per ml—followed by the exposure to C2 ceramide."}, "[4]": {"test_system": "IL-4 spleen cells", "experiment": "Th1/Th2 cytokine profiling assay, IL-4", "format": "cell-based, Balb/c mice", "details": "10 micrograms per ml; Ovalbumin restimulation; 72 hours", "description": "as §1"}, "[5]": {"test_system": "RAW 264.7 cells", "experiment": "Phagocytosis assay (Fluorescein-labeled Escherichia coli, flow cytometry)", "details": "10 micrograms per ml"}, "[6]": {"test_system": "IL-5 spleen cells", "experiment": "Th1/Th2 cytokine profiling assay, IL-5", "format": "cell-based, Balb/c mice", "details": "10 micrograms per ml; Ovalbumin restimulation; 72 hours", "description": "as §1"}, "[7]": {"test_system": "IL-2 spleen cells", "experiment": "Th1/Th2 cytokine profiling assay, IL-2", "format": "cell-based, Balb/c mice", "details": "10 micrograms per ml; Ovalbumin restimulation; 72 hours", "description": "as §1"}, "[8]": {"test_system": "IFNγ spleen cells", "experiment": "Th1/Th2 cytokine profiling assay, IFNγ", "format": "cell-based, Balb/c mice", "details": "10 micrograms per ml; Ovalbumin restimulation; 72 hours", "description": "as §1"}, "[9]": {"test_system": "HCMV strain AD169", "experiment": "HCMV plaque formation assay in MRC-5 cells"}, "[10]": {"test_system": "HIV-1IIIB", "experiment": "HIV-1 antiviral assay in CEM-SS cells (MTS readout)", "format": "cell-based"}}, "note": "No end group written: not given here.", "data": [{"compound": "Pyr-His-Pro-NH2 [Peptide 2]", "values": [{"measurement": "TNF-a spleen cells; TH1 response (% of control)", "setting": "[1]", "result": "110.7 % of control"}, {"measurement": "inhibition of HBV replication as compared to the virus control infection", "setting": "[2]", "result": "no effect"}, {"measurement": "prevention (reduction) of ceramide-induced apoptosis on human lung cells", "setting": "[3]", "result": 17.2, "unit": "%"}, {"measurement": "IL-4 spleen cells; TH2 response (% of control)", "setting": "[4]", "result": "106.2 % of control"}, {"measurement": "increase of the phagocytic activity of murine macrophages", "setting": "[5]", "result": 31.4, "unit": "%"}, {"measurement": "IL-5 spleen cells; TH2 response (% of control)", "setting": "[6]", "result": "67.5 % of control"}, {"measurement": "IL-2 spleen cells (% of control)", "setting": "[7]", "result": "0.0 % of control"}, {"measurement": "IFNγ spleen cells; TH1 response (% of control)", "setting": "[8]", "result": "102.0 % of control"}]}, {"compound": "Arg-Pro-Lys-Pro-Gln-Gln-Phe-Phe-Gly-Leu-Met-NH2 (RPKPQQFFGLM-NH2) [Peptide 1]", "values": [{"measurement": "TNF-a spleen cells; TH1 response (% of control)", "setting": "[1]", "result": "101.0 % of control"}, {"measurement": "inhibition of HBV replication as compared to the virus control infection", "setting": "[2]", "result": 30.2, "unit": "%"}, {"measurement": "prevention (reduction) of ceramide-induced apoptosis on human lung cells", "setting": "[3]", "result": 10.9, "unit": "%"}, {"measurement": "IL-4 spleen cells; TH2 response (% of control)", "setting": "[4]", "result": "106.2 % of control"}, {"measurement": "increase of the phagocytic activity of murine macrophages", "setting": "[5]", "result": 28.6, "unit": "%"}, {"measurement": "IL-5 spleen cells; TH2 response (% of control)", "setting": "[6]", "result": "64.0 % of control"}, {"measurement": "IL-2 spleen cells (% of control)", "setting": "[7]", "result": "113.6 % of control"}, {"measurement": "IFNγ spleen cells; TH1 response (% of control)", "setting": "[8]", "result": "136.4 % of control"}]}, {"compound": "Nc1nc(O)c2ncn(COC(CO)CO)c2n1", "note": "[Ganciclovir]", "values": [{"measurement": "antiviral activity of positive control compound (HCMV)", "setting": "[9]", "result": "expected levels of antiviral activity"}]}, {"compound": "CC(C)(C)NC(=O)[C@@H]1CN(Cc2cccnc2)CCN1C[C@@H](O)C[C@@H](Cc1ccccc1)C(=O)N[C@H]1c2ccccc2C[C@H]1O", "note": "[indinavir]", "values": [{"measurement": "antiviral activity of positive control compounds (HIV-1)", "setting": "[10]", "result": "expected levels of antiviral activity"}]}, {"compound": "Cc1cn([C@H]2C[C@H](N=[N+]=[N-])[C@@H](CO)O2)c(=O)[nH]c1=O", "note": "[AZT]", "values": [{"measurement": "antiviral activity of positive control compounds (HIV-1)", "setting": "[10]", "result": "expected levels of antiviral activity"}]}]}
